Experimental data from PubChem BioAssay AID2060500 (Molecular Pharmacology Branch, DTP, NCI, 2025).

System: 596521-263-R-J1-PDC complex spheroids, viability % of control
Test: Anticancer human tumor 596521-263-R-J1-PDC patient-derived soft tissue sarcoma cell line growth inhibition [GQUAD]
Settings: for IC50: curve of first compound; for viability, T/C: stronger effect = lower value
Procedure, shortened: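 Tumor cells were grown as complex spheroids with HUVEC endothelial cells and mesenchymal stem cells as stroma. G-quadruplex stabilizers were combined with targeted agents over half-log dilutions from near the clinical Cmax, or from 10 microM.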

[1] = second compound 0.0316 µM, first compound 0.0316 µM
[2] = second compound 0.0316 µM, first compound 0.1 µM
[3] = second compound 0.0316 µM, first compound 0.316 µM
[4] = second compound 0.0316 µM, first compound 1 µM
[5] = second compound 0.0316 µM, first compound 3.16 µM
[6] = second compound 0.0316 µM, first compound 10 µM
[7] = second compound 0.1 µM, first compound 0.0316 µM
[8] = second compound 0.1 µM, first compound 0.1 µM
[9] = second compound 0.1 µM, first compound 0.316 µM
[10] = second compound 0.1 µM, first compound 1 µM
[11] = second compound 0.1 µM, first compound 3.16 µM
[12] = second compound 0.1 µM, first compound 10 µM
[13] = second compound 0.316 µM, first compound 0.0316 µM
[14] = second compound 0.316 µM, first compound 0.1 µM
[15] = second compound 0.316 µM, first compound 0.316 µM
[16] = second compound 0.316 µM, first compound 1 µM
[17] = second compound 0.316 µM, first compound 3.16 µM
[18] = second compound 0.316 µM, first compound 10 µM
[19] = second compound 1 µM, first compound 0.0316 µM
[20] = second compound 1 µM, first compound 0.1 µM
[21] = second compound 1 µM, first compound 0.316 µM
[22] = second compound 1 µM, first compound 1 µM
[23] = second compound 1 µM, first compound 3.16 µM
[24] = second compound 1 µM, first compound 10 µM
[25] = second compound 3.16 µM, first compound 0.0316 µM
[26] = second compound 3.16 µM, first compound 0.1 µM
[27] = second compound 3.16 µM, first compound 0.316 µM
[28] = second compound 3.16 µM, first compound 1 µM
[29] = second compound 3.16 µM, first compound 3.16 µM
[30] = second compound 3.16 µM, first compound 10 µM
[31] = second compound 10 µM, first compound 0.0316 µM
[32] = second compound 10 µM, first compound 0.1 µM
[33] = second compound 10 µM, first compound 0.316 µM
[34] = second compound 10 µM, first compound 1 µM
[35] = second compound 10 µM, first compound 3.16 µM
[36] = second compound 10 µM, first compound 10 µM
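Note: spheroids exposed to drugs for 7 days before viability reading.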
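Throughout, for viability, T/C: 100% = DMSO vehicle control viability.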

## CC(C)n1c(=O)n(C)c2cnc3cc(F)c(-c4ccc(OCCCN5CCCCC5)nc4)cc3c21 + Cc1[nH]c2ccc(F)cc2c1-c1nc2c3cccnc3c3ncccc3c2[nH]1
Second compound 0.0316 µM
  IC50: > 10000 nM
Second compound 0.1 µM
  IC50: > 10000 nM
Second compound 0.316 µM
  IC50: > 10000 nM
Second compound 1 µM
  IC50: > 10000 nM
Second compound 3.16 µM
  IC50: > 10000 nM
Second compound 10 µM
  IC50: > 10000 nM
[1]
  viability, T/C: 100%
[2]
  viability, T/C: 82.2%
[3]
  viability, T/C: 81.5%
[4]
  viability, T/C: 87.1%
[5]
  viability, T/C: 80%
[6]
  viability, T/C: 73.4%
[7]
  viability, T/C: 95%
[8]
  viability, T/C: 112%
[9]
  viability, T/C: 91%
[10]
  viability, T/C: 93.9%
[11]
  viability, T/C: 86%
[12]
  viability, T/C: 64.9%
[13]
  viability, T/C: 106%
[14]
  viability, T/C: 102%
[15]
  viability, T/C: 91.4%
[16]
  viability, T/C: 83.7%
[17]
  viability, T/C: 81.9%
[18]
  viability, T/C: 57.6%
[19]
  viability, T/C: 85%
[20]
  viability, T/C: 89%
[21]
  viability, T/C: 97%
[22]
  viability, T/C: 89.4%
[23]
  viability, T/C: 86.8%
[24]
  viability, T/C: 72.1%
[25]
  viability, T/C: 87.9%
[26]
  viability, T/C: 90.3%
[27]
  viability, T/C: 81.4%
[28]
  viability, T/C: 76.3%
[29]
  viability, T/C: 80.6%
[30]
  viability, T/C: 53%
[31]
  viability, T/C: 74.4%
[32]
  viability, T/C: 78.6%
[33]
  viability, T/C: 79.8%
[34]
  viability, T/C: 79.1%
[35]
  viability, T/C: 62.1%
[36]
  viability, T/C: 50.7%

## CC1COCCN1c1cc(-c2ccnn2C)c2ccnc(-c3ccn[nH]3)c2n1 (stereo unspecified) + Cc1[nH]c2ccc(F)cc2c1-c1nc2c3cccnc3c3ncccc3c2[nH]1
Second compound 0.0316 µM
  IC50: 395 nM
Second compound 0.1 µM
  IC50: 510 nM
Second compound 0.316 µM
  IC50: 317 nM
Second compound 1 µM
  IC50: 553 nM
Second compound 3.16 µM
  IC50: 602 nM
Second compound 10 µM
  IC50: 289 nM
[1]
  viability, T/C: 84.3%
[2]
  viability, T/C: 61.8%
[3]
  viability, T/C: 55.6%
[4]
  viability, T/C: 40.1%
[5]
  viability, T/C: 32.5%
[6]
  viability, T/C: 26%
[7]
  viability, T/C: 81.3%
[8]
  viability, T/C: 69.5%
[9]
  viability, T/C: 52%
[10]
  viability, T/C: 41.8%
[11]
  viability, T/C: 37.9%
[12]
  viability, T/C: 23.2%
[13]
  viability, T/C: 75.9%
[14]
  viability, T/C: 57.2%
[15]
  viability, T/C: 50%
[16]
  viability, T/C: 43.2%
[17]
  viability, T/C: 31.8%
[18]
  viability, T/C: 25.3%
[19]
  viability, T/C: 71%
[20]
  viability, T/C: 62.5%
[21]
  viability, T/C: 57.1%
[22]
  viability, T/C: 43.5%
[23]
  viability, T/C: 34.3%
[24]
  viability, T/C: 26%
[25]
  viability, T/C: 67.3%
[26]
  viability, T/C: 62.4%
[27]
  viability, T/C: 53.2%
[28]
  viability, T/C: 47.8%
[29]
  viability, T/C: 36.3%
[30]
  viability, T/C: 26.1%
[31]
  viability, T/C: 64.5%
[32]
  viability, T/C: 57%
[33]
  viability, T/C: 49.6%
[34]
  viability, T/C: 40.9%
[35]
  viability, T/C: 32.9%
[36]
  viability, T/C: 25.4%

## CC1COCCN1c1cc(C2(O)CC3CCC(C2)O3)c2cnn(-c3ccn[nH]3)c2n1 (stereo unspecified) + Cc1[nH]c2ccc(F)cc2c1-c1nc2c3cccnc3c3ncccc3c2[nH]1
Second compound 0.0316 µM
  IC50: 280 nM
Second compound 0.1 µM
  IC50: 267 nM
Second compound 0.316 µM
  IC50: 207 nM
Second compound 1 µM
  IC50: 327 nM
Second compound 3.16 µM
  IC50: 233 nM
Second compound 10 µM
  IC50: 131 nM
[1]
  viability, T/C: 68.8%
[2]
  viability, T/C: 56.8%
[3]
  viability, T/C: 52.6%
[4]
  viability, T/C: 32.8%
[5]
  viability, T/C: 23%
[6]
  viability, T/C: 12.4%
[7]
  viability, T/C: 77.5%
[8]
  viability, T/C: 60.1%
[9]
  viability, T/C: 48.9%
[10]
  viability, T/C: 35.1%
[11]
  viability, T/C: 25.6%
[12]
  viability, T/C: 14.6%
[13]
  viability, T/C: 64.8%
[14]
  viability, T/C: 54.1%
[15]
  viability, T/C: 48.8%
[16]
  viability, T/C: 34.2%
[17]
  viability, T/C: 25.3%
[18]
  viability, T/C: 13.1%
[19]
  viability, T/C: 72.4%
[20]
  viability, T/C: 62.7%
[21]
  viability, T/C: 52%
[22]
  viability, T/C: 33.8%
[23]
  viability, T/C: 25.6%
[24]
  viability, T/C: 16.1%
[25]
  viability, T/C: 63.9%
[26]
  viability, T/C: 59.4%
[27]
  viability, T/C: 47%
[28]
  viability, T/C: 32.2%
[29]
  viability, T/C: 26%
[30]
  viability, T/C: 14.9%
[31]
  viability, T/C: 54.4%
[32]
  viability, T/C: 55%
[33]
  viability, T/C: 42.4%
[34]
  viability, T/C: 27.6%
[35]
  viability, T/C: 25.3%
[36]
  viability, T/C: 14.2%
